From ChEMBL document CHEMBL2073821, “Immunohistochemical and functional characterization of pH-dependent intestinal absorption of weak organic acids by the monocarboxylic acid transporter MCT1” (J Pharm Pharmacol, 1999) come the findings set out here.

What all share (format): functional, cell-based
Common to all, as to conditions: MDA-MB-231

Assay [1] deals with T1, Monocarboxylate transporter 1 (Rattus norvegicus) (UniProt P53987).
T1 sequence (whole entry): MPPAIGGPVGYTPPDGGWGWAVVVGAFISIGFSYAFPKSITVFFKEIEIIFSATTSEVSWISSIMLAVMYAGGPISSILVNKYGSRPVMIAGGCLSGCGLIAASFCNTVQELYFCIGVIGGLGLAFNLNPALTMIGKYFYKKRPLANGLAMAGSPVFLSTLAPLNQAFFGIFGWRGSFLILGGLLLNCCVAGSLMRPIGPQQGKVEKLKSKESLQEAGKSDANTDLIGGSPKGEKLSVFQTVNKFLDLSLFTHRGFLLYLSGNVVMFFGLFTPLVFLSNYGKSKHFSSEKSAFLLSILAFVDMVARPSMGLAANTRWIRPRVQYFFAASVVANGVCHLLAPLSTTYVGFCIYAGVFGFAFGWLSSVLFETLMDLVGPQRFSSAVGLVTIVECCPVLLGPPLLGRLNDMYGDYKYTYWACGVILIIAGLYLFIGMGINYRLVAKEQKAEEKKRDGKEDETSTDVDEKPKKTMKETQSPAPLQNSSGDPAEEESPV
Description: TP_TRANSPORTER: uptake of Propionic acid at a concentration of 7uM in MCT1-expressing MDA-MB231 cells.

The target of assay [2] is T1, Monocarboxylate transporter 1 (Rattus norvegicus). As to the kind of experiment: TP_TRANSPORTER: uptake of Glycylsarcosine at a concentration of 17uM in MCT1-expressing MDA-MB231 cells.
The target is the same in assay [3]. As to the kind of experiment: TP_TRANSPORTER: uptake of P-Aminohippuric acid at a concentration of 9uM in MCT1-expressing MDA-MB231 cells.
The target is the same in assay [4]. As to the kind of experiment: TP_TRANSPORTER: uptake of Methotrexate at a concentration of 0.03uM in MCT1-expressing MDA-MB231 cells.
Assay [5] has the same target. As to the kind of experiment: TP_TRANSPORTER: uptake of Foscarnet at a concentration of 3uM in MCT1-expressing MDA-MB231 cells.
For assay [6] the target is unchanged. As to the kind of experiment: TP_TRANSPORTER: uptake of D-Lactic Acid at a concentration of 3uM in MCT1-expressing MDA-MB231 cells.
Assay [7] has the same target. Description: TP_TRANSPORTER: uptake of Faropenem at a concentration of 76uM in MCT1-expressing MDA-MB231 cells.
Assay [8] has the same target. Description: TP_TRANSPORTER: uptake of Butyric acid at a concentration of 137uM in MCT1-expressing MDA-MB231 cells.
The target is the same in assay [9]. As to the kind of experiment: TP_TRANSPORTER: uptake of Mevalonic acid at a concentration of 67uM in MCT1-expressing MDA-MB231 cells.
Assay [10] shares this target. As to the kind of experiment: TP_TRANSPORTER: uptake of Glutamic acid at a concentration of 0.01uM in MCT1-expressing MDA-MB231 cells.
Assay [11] has the same target. As to the kind of experiment: TP_TRANSPORTER: uptake of Valproic acid at a concentration of 19uM in MCT1-expressing MDA-MB231 cells.

Square brackets hold non-standard residues; d marks the D form. Peptide text beside a SMILES is read from it. Sar = CNCC(=O)O

Consider `CCC(=O)O`, for which the Activity entry in [1] was “substrate [+]”. As for `CN(CC(=O)O)C(=O)CN` (H-Gly-[Sar]-OH), the Activity entry in assay [2] is “is not a substrate [-]”. Take `Nc1ccc(C(=O)NCC(=O)O)cc1`: in [3], the Activity entry was “is not a substrate [-]”. Turning to `CN(Cc1cnc2nc(N)nc(N)c2n1)c1ccc(C(=O)N[C@@H](CCC(=O)O)C(=O)O)cc1`, the Activity entry in [4] is “is not a substrate [-]”.

As to `O=C(O)P(=O)(O)O`, the Activity result in assay [5] was “substrate [+]”.

Turning to `C[C@@H](O)C(=O)O`, in assay [6], the Activity result was “substrate [+]”.

As to `C[C@@H](O)[C@H]1C(=O)N2C(C(=O)O)=C([C@H]3CCCO3)S[C@H]12`, in assay [7], the Activity entry is “is not a substrate [-]”. Turning to `CCCC(=O)O`, the Activity entry in assay [8] is “substrate [+]”. `C[C@@](O)(CCO)CC(=O)O`: the Activity result in [9] was “is not a substrate [-]”.

On to `N[C@@H](CCC(=O)O)C(=O)O`, for which the Activity entry in assay [10] was “is not a substrate [-]”. As for `CCCC(CCC)C(=O)O`, in assay [11], the Activity result was “is not a substrate [-]”.
